Measured values: paper PMC6368403, “Identification of a bilirubin receptor that may mediate a component of cholestatic itch” (eLife, 2019)
Several values for one entry are separate records, joined by “and”; a condition that tells them apart may be missing. Equal values may be shown once.

How the values were obtained:
MRGPRC11 [1] = target: T1, MRGPRC11 (Mus musculus, UniProt Q8CIP3); assay: [35S]GTPγS binding to MRGPRC11 membrane complexes; assay type: biochemical; settings: 50 μM bilirubin
T1 construct: expressed in transfected cells
T1 sequence (Q8CIP3 1-322): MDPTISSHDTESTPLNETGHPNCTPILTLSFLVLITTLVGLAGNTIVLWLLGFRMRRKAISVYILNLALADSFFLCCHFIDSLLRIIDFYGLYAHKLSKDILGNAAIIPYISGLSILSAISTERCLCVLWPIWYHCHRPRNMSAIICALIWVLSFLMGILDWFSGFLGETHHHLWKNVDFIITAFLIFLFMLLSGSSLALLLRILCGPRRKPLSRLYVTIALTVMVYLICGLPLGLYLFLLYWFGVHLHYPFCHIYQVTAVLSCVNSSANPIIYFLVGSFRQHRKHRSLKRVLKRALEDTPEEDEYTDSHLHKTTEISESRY
Experimental: MRGPR activation was determined by measuring binding of a radiolabelled and non-hydrolyzable form of GTP, [^35S]guanosine-5’-(γ-thio)triphosphate ([^35S]GTPγS) as previously described ([Vasavda et al., 2017]). Briefly, 10 µg of crude membrane fractions were diluted into 175 µL assay buffer (50 mM HEPES, 5 mM MgCl2, 100 mM NaCl, 1 mM EDTA, 0.1% […]) supplemented with 10 µM GDP and incubated at room temperature for 5 min. Membranes were then incubated an additional 1 min in a final volume of 199 μL assay buffer supplemented with 50 μM bilirubin. Samples were then brought to 200 μL with the addition of 10 nM [^35S]GTPγS. Samples were incubated for 2 hr at 4°C with gentle agitation. The experiment was terminated by rapid filtration onto GF/B filters and washed three times with wash buffer (50 mM Tris-HCl, 5 mM MgCl2, and 50 mM NaCl at pH 7.4). Filters were then immersed in scintillation cocktail and counted. Nonspecific binding was determined by competition with 10 μM unlabelled GTPγS. GTPγS binding assays were performed as two independent experiments, in triplicate.

MRGPRC11 [2] = target: T1, MRGPRC11; assay: Ca2+ imaging and concentration-Ca2+ response in HEK293 cells expressing MRGPRC11; assay type: cell-based; settings: three replicates, Fig 2-N
Experimental: All cultured cells were maintained in DMEM supplemented with 10% FBS and 1% Penicillin/Streptomycin at 37°C, 5% CO2. All data included were generated from cells tested for mycoplasma and found to be negative. Cells were imaged in calcium imaging buffer (CIB; 10 mM HEPES, 1.2 mM NaHCO3, 130 mM NaCl, 3 mM KCl, 2.5 mM CaCl2, 0.6 mM MgCl2, 20 mM glucose, and 20 mM sucrose at pH 7.4 and 290–300 mOsm). To monitor changes in intracellular [Ca^2+] ([Ca^2+]i), cells were loaded with either Fura 2-AM (HEK293 cells) or Fluo 4-AM (DRG neurons and mast cells) for 30 min in the dark at 37°C in CIB just prior to imaging. With Fura 2-AM, emission at 510 nm was monitored from excitation at both 340 nm and 380 nm. With Fluo 4-AM, emission at 520 nm was monitored from excitation at 488 nm. Cells were identified as responding if the intracellular [Ca^2+] rose by either 50% compared to baseline or 50% compared to the [Ca^2+]i change assayed during addition of 50 mM KCl (neurons only). Damaged, detached, high-baseline, and motion-activated cells were excluded from analysis.
In initial screens, HEK293 cells stably expressing the murine G-protein alpha-subunit Gα15, a unique Gα protein that non-selectively couples a large variety of GPCRs to phospholipase C ^30, were plated on poly-D-lysine-coated coverslips and transiently transfected with constructs encoding the MRGRPR of interest. 12–24 hr later, cells were loaded with the Fura 2-AM. Unless otherwise specified, compounds were perfused into the imaging chamber for approximately thirty seconds after a baseline period was established. Response was then monitored at 5 s intervals for an additional 60 s.
HEK293 cells stably expressing either MRGPRA1, MRGPRX4, and MRGRPC11 were seeded in poly-D-lysine-coated 96-well plates at 10,000 cells/well. Cells were loaded with Fura 2–AM, washed twice, and maintained in CIB. Haem metabolites were freshly dissolved in DMSO in dim light and then diluted into a buffer comprised of 20 mM Tris and 150 mM NaCl at pH 8.8. Potential changes in pH were evaluated prior to each experiment. EC50 values were determined from dose-responses performed in triplicate, repeated 2–4 times. To determine potential antagonism by QWF against bilirubin, cells were treated with varying doses of QWF for 1 min in CIB prior to application of agonist.
HEK293 stable cell lines expressing GFP-tagged MRGPRA3, MRGPRC11, MRGPRD, MRGPRX1, and MRGPRX2 were generated in previously described reports ([Liu et al., 2009]; [Liu et al., 2012]; [McNeil et al., 2015]). Briefly, plasmids containing the receptor of interest were transfected into HEK cells using Lipofectamine 3000. After 3 days, cells were then selected using 0.5 mg/mL G418. After 3 weeks, monoclonal colonies were established and each the highest expressing clones were identified. For this study, Mrgpra1 and MRGPRX4 were inserted into pEGFP-N1 and transfected into HEK293 cells. MRGPR-positive cells were selected using 0.5 mg/mL G418 for three weeks, after which GFP-positive cells were sorted by FACS and monoclonally expanded. Two lines expressing similar levels of MRGPRA1 and MRGPRX4, as measured by GFP fluorescence, were selected for study.

- GTP binding to MRGPRC11 membrane complexes (MRGPRC11 [1]): not to MRGPRC11
- [35S]GTPγS binding (MRGPRC11 [1]; MRGPRC11 membrane complexes (Fig 2K)): 75 and 84 and 78
- Ca2+ response (concentration-Ca2+ response curve), replicate values (MRGPRC11 [2]; [Ligand] 3.90625e-6 M): 0
- Ca2+ response (concentration-Ca2+ response curve), replicate values (MRGPRC11 [2]; [Ligand] 7.8125e-6 M): 0
- Ca2+ response (concentration-Ca2+ response curve), replicate values (MRGPRC11 [2]; [Ligand] 1.5625e-5 M): 0
- Ca2+ response (concentration-Ca2+ response curve), replicate values (MRGPRC11 [2]; [Ligand] 3.125e-5 M): 0
- Ca2+ response (concentration-Ca2+ response curve), replicate values (MRGPRC11 [2]; [Ligand] 6.25e-5 M): 0
- Ca2+ response (concentration-Ca2+ response curve), replicate values (MRGPRC11 [2]; [Ligand] 0.000125 M): 0
- Ca2+ response (concentration-Ca2+ response curve), replicate values (MRGPRC11 [2]; [Ligand] 0.00025 M): 0
- Ca2+ response (concentration-Ca2+ response curve), replicate values (MRGPRC11 [2]; [Ligand] 0.0005 M): 0
SMILES: C=CC1=C(C)/C(=C/c2[nH]c(Cc3[nH]c(/C=C4\NC(=O)C(C)=C4C=C)c(C)c3CCC(=O)O)c(CCC(=O)O)c2C)NC1=O [bilirubin, bilirubin IXα]
